Experimental data published in US9937121B2, “Hydrophilic external gel formulation capable of enhancing skin permeability of tacrolimus” (CHUNG-ANG UNIVERSITY INDUSTRY-ACADEMIC COOPERATION …, priority 2014, dated 2018).

Legend:
[1] = Solubility of tacrolimus in Transcutol P; assay type: physicochemical; conditions: room temperature
Excerpt: Since tacrolimus is lipid-soluble and a formulation for delivering a drug is in a hydrophilic gel form, a solubilizer that can dissolve tacrolimus and then disperse tacrolimus well was needed. Also, in order to enhance the skin permeability of tacrolimus, Transcutol P was selected as a substance which can act as an enhancer for skin permeability. […] Carbopol 934P used as a polymeric base absorbs and attracts water well, has an ability to form a film, and thus is widely used as a moisturizer. Carnosine, which is a biocomponent present in human muscle and brain tissue, is known as a substance having excellent antioxidant activity, and appropriately adjusts the pH of a formulation for external application when applied to skin.

[2] = poorly soluble in water and highly permeable; cited from earlier work

solubility of tacrolimus in Transcutol P [1]: 240 mg/g
Structure (SMILES): C=CC[C@@H]1/C=C(\C)C[C@H](C)C[C@H](OC)[C@H]2O[C@@](O)(C(=O)C(=O)N3CCCC[C@H]3C(=O)O[C@H](/C(C)=C/[C@@H]3CC[C@@H](O)[C@H](OC)C3)[C@H](C)[C@@H](O)CC1=O)[C@H](C)C[C@@H]2OC [tacrolimus, Tacrolimus]
BCS class [2]: class II
